Data taken from PMC12254266, “Multicolored sequential resonance energy transfer for detection of simultaneous ligand binding at G protein-coupled receptors” (Nature Communications, 2025).
Several values for one entry are separate records, joined by “and”; a condition that tells them apart may be missing. Equal values may be shown once.

What was measured:
FFA1 = FFA1 (Homo sapiens, UniProt O14842); assay: Ca2+ mobilisation (Fura2) in Flp-In T-REx 293 cells expressing Nluc-FFA1, FFA1-Nluc or untagged FFA1; assay type: cell-based; design: expressed in transfected cells; settings: for pEC50: Ca2+ data, mean±SEM; for pEC50 / EMax: NR = No response; for EMax: percentage of response to 10 μM T360; for Ca2+ Response as a % of T360 Response: single technical replicates
Sequence of FFA1 (O14842 whole entry): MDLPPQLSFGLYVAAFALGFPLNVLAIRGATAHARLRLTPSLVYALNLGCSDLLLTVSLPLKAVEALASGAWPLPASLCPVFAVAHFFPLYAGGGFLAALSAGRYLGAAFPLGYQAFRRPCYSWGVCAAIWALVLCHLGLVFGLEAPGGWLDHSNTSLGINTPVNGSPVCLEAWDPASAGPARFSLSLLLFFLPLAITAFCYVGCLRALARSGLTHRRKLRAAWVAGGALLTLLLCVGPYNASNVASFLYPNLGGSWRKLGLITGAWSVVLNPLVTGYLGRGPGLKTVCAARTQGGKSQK
Experimental: Nluc-FFA1, FFA1-Nluc or untagged FFA1 Flp-In T-REx 293 cells were plated at 50,000 cells per well in poly-D-lysine coated black clear bottom 96-well plates. Cells were then cultured for 24 h until reaching confluency before culture medium was replaced with medium containing 100 ng/mL of doxycycline to induce receptor expression. Cells were cultured for a further 24 h before the assay. On the day of the assay culture medium was removed and replaced with medium containing 3 μM Fura2-AM Ca^2+ dye. […] Fura2 fluorescent emission at 520 nm following excitation with each of 340 and 380 nm was measured in regular intervals both before and after adding test compounds for a total of 90 s per well. Calcium responses were determined by taking the peak 340/380 ratio after first subtracting the ratios obtained prior to addition of test compound.

FFA1-Nluc = FFA1-Nluc (Homo sapiens, UniProt O14842); assay: DISCo-BRET (endpoint, spectra scan, kinetics) with TUG-2591 and TUG-2597 at C terminal Nluc tagged FFA1; assay type: binding; design: expressed in transfected cells; settings: for Specific BRET (540/450), % of control: Figure 4Bi, single replicate values (technical duplicate); for Specific BRET (690/540), % of control: technical duplicate
Sequence of FFA1-Nluc (O14842 whole entry): as above
Experimental: Nluc-FFA1 or FFA1-Nluc Flp-In T-REx 293 cells were plated at 50,000 cells per well in poly-D-lysine coated white 96-well plates. Cells were cultured for 24 h in the plate before medium was replaced with medium containing 100 ng/mL of doxycycline to induce receptor expression. After culturing for a further 24 h, culture medium was removed, cells washed with HBSS and incubated in HBSS for 30 min. For all DISCo-BRET formats Nano-Glo substrate was then added at a 1:800 final dilution and cells incubated for 10 min. Following substrate addition experimental set up different among the three formats: endpoint, spectra scan, and kinetics.
For endpoint experiments all fluorescent and unlabelled ligands were added to the cells and incubated for 5 min at 37 °C. Luminescent emission was then measured using a CLARIOstar microplate reader with monochromator set at 450–60 nm (Nluc), 540−60 nm (NBD) and 690–100 nm (SulfoCy5). BRET ratios were then calculated as either SulfoCy5 emission divided by NBD emission, SulfoCy5 emission divided by Nluc emission, or NBD emission divided by Nluc emission.
For spectra scan experiments all indicated fluorescent and unlabelled ligands were added to the cells and cells incubated for 5 min at 37 °C. Luminescence emissions were then measured from each well of the plate from 440 nm – 740 nm with a 5 nm resolution using a CLARIOstar microplate. Luminescent emission spectra were then normalised as a percentage of the maximal Nluc emission peak ( ~ 460 nm), then subtracted with the spectrum obtained in the presence of high concentrations of ligands competing for both binding sites to obtain specific BRET binding spectra.
In kinetic DISCo-BRET experiments plates were placed directly in a CLARIOstar plate reader set to 25 °C 10 min after Nano-Glo substrate addition. Luminescent measurements were then taken with three sequential measurements per well with the monochromator set to 450–60 nm (Nluc), 540 - 60 nm (NBD) and 690–100 nm (SulfoCy5) taken in 20 or 30 s intervals. After 5 min of background measurements, the plate reader was paused for the first indicated fluorescent ligand(s) addition, before immediately returning the plate to the reader to continue luminescence readings. After 5 min, the reader was again paused to add the second fluorescent ligand (association assays) or competing ligand(s) (dissociation assays), before immediately continuing the measurements for the indicated time. Non-specific control binding was obtained by adding the indicated competing ligand(s) 5 min prior to the addition of the first fluorescent ligand.

## COc1ccc(C(=O)N(CCNC(=O)OC(C)(C)C)c2ccccc2)c(N2CCC(COc3cccc(C(CC(=O)O)C4CC4)c3)CC2)c1.Cl (stereo not shown) [TUG-2455]
FFA1
  pEC50: 6.63±0.10
  EMax: 103±12%

## COc1ccc(C(=O)N(CC(C)(C)CNC(=O)OC(C)(C)C)c2ccccc2)c(N2CCC(COc3cccc(C(CC(=O)O)C4CC4)c3)CC2)c1.O=C(O)C(F)(F)F (stereo not shown) [TUG-2467]
FFA1
  pEC50: 6.78±0.02
  EMax: 124±9%

## COc1ccc(C(=O)N(CC(C)(C)CNc2ccc([N+](=O)[O-])c3nonc23)c2ccccc2)c(N2CCC(COc3cccc(C(CC(=O)O)C4CC4)c3)CC2)c1.O=C(O)C(F)(F)F (stereo not shown) [TUG-2490]
FFA1
  pEC50: 5.95±0.16
FFA1; log[Ligand] -5.5
  Ca2+ Response as a % of T360 Response: 93.1455% and 77.9850% and 75.8107% and 96.4232% and 72.2793% and 68.6021%
FFA1; log[Ligand] -6
  Ca2+ Response as a % of T360 Response: 53.6775% and 46.6859% and 50.0991% and 72.4727% and 32.6717% and 50.6607%
FFA1; log[Ligand] -6.5
  Ca2+ Response as a % of T360 Response: 16.7030% and 15.2768% and 30.6910% and 52.9860% and 26.5604% and 17.0828%
FFA1; log[Ligand] -7
  Ca2+ Response as a % of T360 Response: -0.5150% and -0.6020% and 9.0880% and 4.0961% and 1.0500% and 13.2109%
FFA1; log[Ligand] -8
  Ca2+ Response as a % of T360 Response: -0.3253% and 0.1971% and 2.2527% and 3.6975% and -0.7574% and 0.7574%
FFA1; log[Ligand] -9
  Ca2+ Response as a % of T360 Response: 3.6767% and 1.4233% and -0.8955% and -4.2309% and 0.8739% and -0.0879%

## CC/C=C\C/C=C\C/C=C\CCCCCCCC(=O)O [aLA, α-linolenic acid, reference compound]
FFA1-Nluc; 100 nM TUG-2591 and […] TUG-2597, NC = No competition
  pIC50 DISCo-BRET NBD/Nluc: ~ 2.9
FFA1-Nluc; 100 nM TUG-2591 and […] TUG-2597, one site model, NC = No competition
  pIC50 DISCo-BRET SulfoCy5/NBD: ~ 3.7
FFA1-Nluc; log[Ligand] -3.5
  Specific BRET (540/450), % of control: 354.98 % of control and 422.66 % of control and 352.08 % of control and 364.14 % of control and 218.20 % of control and 190.12 % of control and 192.71 % of control and 171.70 % of control
FFA1-Nluc; log[Ligand] -4
  Specific BRET (540/450), % of control: 179.15 % of control and 260.42 % of control and 251.25 % of control and 232.54 % of control and 120.10 % of control and 104.16 % of control and 145.44 % of control and 143.73 % of control
FFA1-Nluc; log[Ligand] -4.5
  Specific BRET (540/450), % of control: 155.59 % of control and 151.36 % of control and 193.87 % of control and 183.26 % of control and 24.44 % of control and 77.47 % of control and 109.72 % of control and 124.03 % of control
  Specific BRET (690/540), % of control: 81.41 % of control and 79.89 % of control and 110.36 % of control and 102.58 % of control and 55.19 % of control and 61.69 % of control and 79.93 % of control
FFA1-Nluc; log[Ligand] -5
  Specific BRET (540/450), % of control: 123.87 % of control and 127.19 % of control and 164.97 % of control and 169.96 % of control and 63.60 % of control and 42.81 % of control and 103.55 % of control and 110.64 % of control
  Specific BRET (690/540), % of control: 89.67 % of control and 83.59 % of control and 104.96 % of control and 115.39 % of control and 81.83 % of control and 84.93 % of control and 95.09 % of control and 92.80 % of control
FFA1-Nluc; log[Ligand] -5.5
  Specific BRET (540/450), % of control: 115.11 % of control and 123.26 % of control and 154.99 % of control and 156.24 % of control and 24.44 % of control and 64.99 % of control and 93.96 % of control and 98.42 % of control
  Specific BRET (690/540), % of control: 91.96 % of control and 95.98 % of control and 110.87 % of control and 118.78 % of control and 93.29 % of control and 101.24 % of control and 95.01 % of control and 95.16 % of control
FFA1-Nluc; log[Ligand] -6
  Specific BRET (540/450), % of control: 117.22 % of control and 113.60 % of control and 140.23 % of control and 145.01 % of control and 35.88 % of control and 33.45 % of control and 94.09 % of control and 108.27 % of control
FFA1-Nluc; log[Ligand] -7
  Specific BRET (540/450), % of control: 110.27 % of control and 80.36 % of control and 117.15 % of control and 115.28 % of control and 96.88 % of control and 77.82 % of control and 92.78 % of control and 101.71 % of control
  Specific BRET (690/540), % of control: 92.39 % of control and 86.20 % of control and 111.87 % of control and 113.13 % of control and 97.73 % of control and 97.01 % of control and 100.19 % of control and 94.25 % of control
FFA1-Nluc; log[ligand] -6
  Specific BRET (690/540), % of control: 86.09 % of control and 86.20 % of control and 111.62 % of control and 112.25 % of control and 100.93 % of control and 101.65 % of control and 99.73 % of control and 101.33 % of control
